No end group written: not given here.
What was measured:
[1] = test system: mature female rats (eight months old); test: Bone formation-promoting effect in mature rats; assay type: in vivo, rat; conditions: No. 1 oral 1, 10 or 100 mg/kg·day, alendronate 300 μg/kg subcutaneous, 20 weeks, vs control group
Method: Synthetic peptide No. 1 was administered to mature female rats (eight months old, ten rats in each group) by oral gavage using a gastric tube once a day for 20 weeks. The dose of the synthetic peptide was 1, 10 or 100 mg/kg·day.

[2] = test system: mouse osteoblast-like cell line MC3T3-E1 Subclone-4; test: Osteoblast growth-promoting activity (cell counting method); assay type: cell-based; conditions: synthetic peptides at 2.5, 5 or 10 μg/mL; 72 hours; relative to PBS (−) group taken as 100; FIGS. 9 to 12
Method: A mouse osteoblast-like cell line MC3T3-E1 Subclone-4 (ATCC No. CRL-2593) was cultured in α-MEM medium supplemented with 10% FBS at 5% CO2 and 95% air at 37° C. until confluent. The cells were collected by trypsinization. The collected cells were suspended at 1×10^4 cells/mL in fresh α-MEM medium. One mL of the cell suspension was seeded in each well of a 24-well plate, and precultured at 5% CO2 and 95% air at 37° C. On the next day, the medium was replaced with medium prepared by well mixing 50 μL of a sample or PBS (−) with 950 μL of fresh α-MEM medium supplemented with CaCl2 to a Ca concentration of 500 μg/mL. The cells were further cultured for 72 hours. The growth activity of osteoblasts was measured by the cell counting method. The activity of the sample for promoting the growth of osteoblasts was expressed in terms of the relative value, with the growth rate in the PBS (−) group taken as 100. Osteoblast growth-promoting activity was determined for the synthetic peptides in the same manner as in Example 1. The synthetic peptides were added at 2.5, 5 or 10 μg/mL per well. As a control, PBS (−) was added. The osteoblast growth-promoting activity was expressed in terms of the relative value, with the growth rate in the PBS (−) group taken as 100.

[3] = test system: mouse-derived cell line ATDC5; test: Hyaluronic acid production-promoting activity (ELISA of culture supernatant); assay type: cell-based; conditions: 10 nmol/mL; supernatant after 48 hours of culture; FIG. 15
Method: This study was performed using the mouse-derived cell line ATDC5 as used in Example 4. ATDC5 cells in the logarithmic growth phase were seeded at 2×10^4 cells/mL per well in a 24-well plate containing DMEM/F-12 (1:1) medium supplemented with 5% FCS (fetal calf serum), 10 μg/mL transferrin and 3×10^−8 M sodium selenite. The cells were precultured at 5% CO2 and 95% air at 37° C. On the next day, the medium in each well was removed, and medium containing the synthetic peptide (No. 1 or No. 6) at 10 nmol/mL was added. The cells were cultured for […]. As a control, medium without a synthetic peptide was added. After 48 hours of culture, the culture supernatants were collected, and their hyaluronic acid concentrations were measured using QnE Hyaluronic Acid ELISA Assay (Biotech Trading Partners). The concentrations of hyaluronic acid in the culture supernatants of the synthetic peptide addition group were calculated by subtracting the absorbance of the background from the absorbance of the supernatants, and fitting the resulting values to the reference curve prepared using the standard.

[4] = test system: mouse-derived chondrogenic cell line ATDC5; test: Chondrocyte growth-promoting activity (Cell Counting Kit-8); assay type: cell-based; conditions: 10 nmol/mL; 72 hours; relative to control taken as 100%; FIG. 14
Method: This study was performed using mouse-derived chondrogenic cell line ATDC5 (RIKEN BANK, RBC0565). ATDC5 cells in the logarithmic growth phase were suspended at 3×10^4 cells/mL in Eagle MEM medium supplemented with 5% FCS (fetal calf serum), and 100 μL of the cell suspension was seeded in each well of a 96-well plate and precultured at 5% CO2 and 95% air at 37° C. On the next day, the medium in each well was removed, and medium containing the synthetic peptide (No. 1 or No. 6) at 10 nmol/mL was added. The cells were cultured for 72 hours. As a control, medium without a synthetic peptide was added. The reaction solution ([…]) of Cell Counting Kit-8 (Dojindo Laboratories) was added to each well. The plate was incubated for 3 hours, and the absorbance at 450 nm was measured with a microplate reader. The activity of the synthetic peptides for promoting the growth of chondrocytes was expressed in terms of the relative value, with the absorbance (growth rate) in the control group taken as 100%.

[5] = test system: Crlj:W1 male rats at four weeks old; test: Bone formation in growth cartilage and primary cancellous bone, 7-day oral administration; assay type: in vivo, rat; conditions: No. 1 oral 100 mg/kg-day, hGH 500 μg/kg-day subcutaneous, seven days
Method: One of the synthetic peptides (No. 1) or water for injection (control) was administered to Crlj:W1 male rats at four weeks old by oral gavage using a gastric tube once a day for seven days (n=3 in each group). The dose of the synthetic peptide (No. 1) was 100 mg/kg-day. As a positive control, human growth hormone (hGH) (Norditropin, Standard Commodity Classification No. of Japan: 872412) was subcutaneously administered at 500 μg/kg-day once a day for seven days. As fluorescent labels for the site of bone formation, tetracycline (20 mg/kg) was subcutaneously administered on day 4 after the administration of the peptide or control, and then calcein (10 mg/kg) was subcutaneously administered on day 6 after the administration of the peptide or control. After the administration of the test sample on day 7, the rats were kept under fasting conditions. Twenty-four hours later, the blood was collected. The rats were then euthanized by bloodletting under anesthesia, and the tibiae were harvested (see FIG. 16). Non-decalcified specimens of the proximal tibiae were prepared and photographed under a fluorescent microscope (BX-53, OLYMPUS). The bone morphology was measured using a morphometry system (Histometry RT digitizer, System Supply Co., Ltd.) and an analysis software (CSS-840 cancellous bone morphometry version, System Supply Co., Ltd.). The longitudinal growth rate (Lo.G.R.) in the growth cartilage, which is the increase in the height per day, was determined by measuring the distance between the tetracycline label and the calcein label, and dividing the distance by the administration interval between the fluorescent labels (two days).
The increase in the level of IGF-1, which is related to growth of the bones and muscles in a growth phase, may contribute to the bone growth-promoting effect.

[6] = test system: Crlj:W1 male rats at four weeks old; test: Bone formation in growth cartilage and secondary cancellous bone, 21-day oral administration; assay type: in vivo, rat; conditions: No. 1 oral 100 mg/kg·day, hGH 500 μg/kg·day subcutaneous; 21 days; FIG. 21
Method: One of the synthetic peptides (No. 1) or water for injection (control) was administered to Crlj:W1 male rats at four weeks old by oral gavage using a gastric tube once a day for 21 days (n=3 in each group). The dose of the synthetic peptide was 100 mg/kg·day. As a positive control, human growth hormone (hGH) (Norditropin, Standard Commodity Classification No. of Japan: 872412) was subcutaneously administered at 500 μg/kg·day once a day for 21 days. As fluorescent labels for the site of bone formation, tetracycline (20 mg/kg) was subcutaneously administered on day 18 after the administration of the peptide or control, and then calcein (10 mg/kg) was subcutaneously administered on day 20 after the administration of the peptide or control. After the administration of the test sample on day 21, the rats were kept under fasting conditions. Twenty-four hours later, the rats were euthanized by bloodletting under anesthesia, and the tibiae were harvested (see FIG. 20). Non-decalcified specimens of the proximal tibiae were prepared and photographed under a fluorescent microscope (BX-53, OLYMPUS). The bone morphology was measured using a morphometry system (Histometry RT digitizer, System Supply Co., Ltd.) and an analysis software (CSS-840 cancellous bone morphometry version, System Supply Co., Ltd.). The longitudinal growth rate (Lo.G.R.) in the epiphyseal cartilage, which is the increase in the height per day, was determined by measuring the distance between the tetracycline label and the calcein label, and dividing the distance by the administration interval between the fluorescent labels (two days).

[7] = test system: Crlj:W1 male rats at four weeks old; test: Mineral apposition rate in secondary cancellous bone, 7-day oral administration; assay type: in vivo, rat; conditions: No. 1 oral 1, 10 or 100 mg/kg-day, hGH 500 μg/kg·day subcutaneous; seven days; FIG. 26
Method: One of the synthetic peptides (No. 1) or water for injection (control) was administered to Crlj:W1 male rats at four weeks old by oral gavage using a gastric tube once a day for seven days (n=10 in each group). The dose of the synthetic peptide was 1, 10 or 100 mg/kg-day. As a positive control, human growth hormone (hGH) (Norditropin, Standard Commodity Classification No. of Japan: 872412) was subcutaneously administered at 500 μg/kg·day once a day for seven days. As fluorescent labels for the site of bone formation, tetracycline (20 mg/kg) was subcutaneously administered on day 4 after the administration of the peptide or control, and then calcein (10 mg/kg) was subcutaneously administered on day 6 after the administration of the peptide or control. After the administration of the test sample on day 7, the rats were kept under fasting conditions. Twenty-four hours later, the rats were euthanized by bloodletting under anesthesia, and the tibiae were harvested. Non-decalcified specimens of the proximal tibiae were prepared and photographed under a fluorescent microscope (BX-53, OLYMPUS). The bone morphology was measured using a morphometry system (Histometry RT digitizer, System Supply Co., Ltd.) and an analysis software (CSS-840 cancellous bone morphometry version, System Supply Co., Ltd.). The mineral apposition rate (MAR), per day, in the secondary cancellous bone was determined by measuring the distance between the tetracycline label and the calcein label in the secondary cancellous bone, and dividing the distance by the administration interval between the fluorescent labels (two days). […] The increase in the mineral apposition rate in the secondary cancellous bone in the No. 1 administration group would have resulted from the increase in the number of osteoblasts.

For `NCCCC(O)(P(=O)(O)O)P(=O)(O)O` [alendronate, alendronate sodium hydrate, reference compound], the “cancellous bone volume in the proximal tibial metaphysis” value [1] was “significantly increased”.

In the case of DESSPYE [No. 4], the osteoblast growth-promoting activity [2] is reported as “promoted the growth of osteoblasts in a concentration-dependent manner”.

EDESSPYE [No. 5] was tested, and the osteoblast growth-promoting activity [2] was “promoted the growth of osteoblasts in a concentration-dependent manner”.

In the case of Pro-Glu-Ser-Glu-Glu (PESEE) [No. 3], the osteoblast growth-promoting activity [2] is reported as “promoted the growth of osteoblasts in a concentration-dependent manner”.

In the case of VNPESEE [No. 2], the osteoblast growth-promoting activity [2] is reported as “promoted the growth of osteoblasts in a concentration-dependent manner”.

For VNPESEEEDESSPYE [No. 6], the “hyaluronic acid production-promoting activity (hyaluronic acid concentration in culture supernatant)” value [3] was “showed hyaluronic acid production-promoting effect”, the chondrocyte growth-promoting activity [4] was “showed chondrocyte growth-promoting effect” and the osteoblast growth-promoting activity [2] was “promoted the growth of osteoblasts in a concentration-dependent manner”.

With “hGH: human growth hormone (hGH) (Norditropin), positive control, subcutaneously administered [reference compound]” the “serum level of insulin-like growth factor (IGF-1)” value ([5]; ELISA, FIG. 19) was “higher than that in the control group”, the “longitudinal growth rate (Lo.G.R.) in the growth cartilage, vs control group” value ([5]; FIG. 17) was “significant promotion of bone growth as compared with the control group” and the “longitudinal growth rate (Lo.G.R.) in the epiphyseal cartilage, vs control group” value [6] was “significant promotion of bone growth as compared with the control group”. The “mineral apposition rate (MAR) in the secondary cancellous bone, vs control group” value [7] was “significant increase in the mineral apposition rate”.

Source: patent US10538564B2, “Peptides having osteoblast growth-promoting activity and use thereof” (PHARMA FOODS INTERNATIONAL CO., LTD., priority 2014, dated 2020)
